Reference: paper PMC8815882, “Screening the pandemic response box identified benzimidazole carbamates, Olorofim and ravuconazole as promising drug candidates for the treatment of eumycetoma” (PLoS Neglected Tropical Diseases, 2022)
pIC50: −log10 of the molar value. In brackets after ≈: the same amount, converted by molar mass. Where two headings read alike, the source gives them in different places.

What was measured:
[1] = system: Me. romeroi strain CBS128765; experiment: CLSI M38-A2 based in vitro susceptibility screening at 25 μM; format: cell-based, Medicopsis romeroi; conditions: selected if >75% (resazurin) or >80% (XTT) fungal growth inhibited
[2] = system: M. mycetomatis genome strain MM55; experiment: CLSI M38-A2 based in vitro susceptibility screening (XTT or resazurin), growth at fixed concentration; format: cell-based, Madurella mycetomatis; conditions: Madurella mycetomatis
[3] = system: M. mycetomatis isolate MM55; experiment: M. mycetomatis grain infection model in G. mellonella larvae, survival; format: in vivo, Galleria mellonella; set-up: In vivo efficacy, Larvae survival %: concentration or dose not given beside the values; conditions: for Effect on larvae survival Day 4 (words) / Effect on larvae survival Day 10 (words): 20 μM per larvae, vs infected control; for Effect on larvae survival Day 4 (words): day four
[4] = system: ten different M. mycetomatis isolates; experiment: MIC / MIC50 determination (XTT) in ten M. mycetomatis isolates; format: cell-based, Madurella mycetomatis; conditions: Madurella mycetomatis
M. mycetomatis MM55 = experiment: IC50 determination, 2-fold dilution series 16 to 0.03125 μM; format: cell-based, Madurella mycetomatis; conditions: for pIC50 / IC90: Madurella mycetomatis
[5] = system: ten different M. mycetomatis isolates; set-up: method as in PMID 24945848, PMID 22964246, PMID 31904836; conditions: asterisk: determined in previous works ref 19-21; cited from earlier work
[6] = system: F. senegalensis strain CBS132257; experiment: CLSI M38-A2 based in vitro susceptibility screening at 25 μM; format: cell-based, Falciformispora senegalensis; conditions: selected if >75% (resazurin) or >80% (XTT) fungal growth inhibited
[7] = G. mellonella larvae infected with M. mycetomatis
[8] = MM55, Table 2, M. mycetomatis MM55, read-out: IC50
[9] = 25 uM, mean, read-out: Percentage survival at 25um, 25 uM mean
[10] = 25 uM, replicate A, read-out: Percentage survival at 25um, 25 um A
[11] = 25 uM, replicate B, read-out: Percentage survival at 25um, 25 uM B
[12] = 25 uM, replicate C, read-out: Percentage survival at 25um, 25 uM C
[13] = mean, read-out: Percentage survival at 100um, 100 uM mean
[14] = replicate (first column), read-out: Percentage survival at 100um, 100 uM A
[15] = replicate (second column), read-out: Percentage survival at 100um, 100 uM A
[16] = replicate (third column), read-out: Percentage survival at 100um, 100 uM A
[17] = MM55, replicate 1, read-out: IC50 1
[18] = MM55, replicate 1, read-out: IC90 1
[19] = MM55, replicate 2, read-out: IC50 2
[20] = MM55, replicate 2, read-out: IC90 2
[21] = MM55, replicate 3, read-out: IC50 3
[22] = MM55, replicate 3, read-out: IC90 3

With `COC(=O)Nc1nc2ccccc2[nH]1` [MMV344625, Carbendazim] the “Inhibits growth of Medicopsis romeroi at 25 μM” value [1] was “inhibit the growth”, the activity at 25 µM ([2]; 25 uM, replicate A, M. mycetomatis MM55, read-out: Percentage survival at 25um, 25 um A) was 1.64% and the activity at 100 µM ([2]; mean of three, M. mycetomatis MM55, read-out: Percentage survival at 100um, 100 uM mean) was 8.48%. For the same molecule, the activity at 100 µM ([2]; replicate 1, M. mycetomatis MM55, read-out: Percentage survival at 100um, 100 uM A (first replicate column)) was 0.376%, the activity at 100 µM ([2]; replicate 2, M. mycetomatis MM55, read-out: Percentage survival at 100um, 100 uM A (second replicate column)) was 3.66% and the activity at 100 µM ([2]; replicate 3, M. mycetomatis MM55, read-out: Percentage survival at 100um, 100 uM A (third replicate column)) was 21.4%. For the same molecule, the activity at 25 µM ([2]; read-out: Percentage survival at 25um, 25 uM B) was 6.23%, the activity at 25 µM ([2]; read-out: Percentage survival at 25um, 25 uM C) was 2.7% and the activity at 25 µM ([2]; read-out: Percentage survival at 25um, 25 uM mean) was 3.52%. For the same molecule, the “Effect on larvae survival Day 4 (words)” value [3] was “Increase survival”, the “Effect on larvae survival Day 4 (words)” value ([3]; listed as carbendazim) was “significantly increase larvae survival” and the “Effect on larvae survival Day 10 (words)” value ([3]; day ten) was “No”. The “In vivo efficacy, Enhanced survival compared to control?” value [3, 7] was “no”, the “In vivo efficacy, Larvae survival %” value [3, 7] was 6.7% and the MIC50 ([4]; Table 3 and Fig 5, benzimidazole carbamates, M. mycetomatis, read-out: MIC50) was 0.5 µM (≈ 0.0956 µg/mL). It also gave an MIC50 ([4]; median MIC over ten M. mycetomatis isolates, no asterisk, read-out: MIC50) of 0.5 µM (≈ 0.0956 µg/mL), an MIC50 ([4]; over the tested M. mycetomatis isolates, read-out: MIC50 mean) of 0.5 µM (≈ 0.0956 µg/mL) and an MIC ([4]; isolate CBS247.48, read-out: MIC CBS247.48) of 0.5 µM (≈ 0.0956 µg/mL). For the same molecule, the MIC ([4]; isolate MM14, read-out: MIC MM14) was under 0.0312 µM, the MIC ([4]; isolate MM45, read-out: MIC MM45) was 1 µM (≈ 0.191 µg/mL) and the MIC ([4]; isolate MM55, read-out: MIC MM55) was 0.5 µM (≈ 0.0956 µg/mL). The MIC ([4]; isolate P1, read-out: MIC P1) was 0.5 µM (≈ 0.0956 µg/mL), the MIC ([4]; isolate ParijsAl1, read-out: MIC ParijsAl1) was 1 µM (≈ 0.191 µg/mL) and the MIC ([4]; isolate Peru72012, read-out: MIC Peru72012) was 1 µM (≈ 0.191 µg/mL). The MIC ([4]; isolate So1, read-out: MIC So1) was 0.5 µM (≈ 0.0956 µg/mL), the MIC ([4]; isolate i1, read-out: MIC i1) was 0.5 µM (≈ 0.0956 µg/mL) and the MIC ([4]; isolate i11, read-out: MIC i11) was 2 µM (≈ 0.382 µg/mL). The “Drug static or cidal” value (M. mycetomatis MM55; M. mycetomatis) was “Static”, the pIC50 (M. mycetomatis MM55; [8]) was 5.88 and the pIC50 (M. mycetomatis MM55; MM55, mean of replicates, read-out: IC50 mean) was 5.88. For the same molecule, the pIC50 (M. mycetomatis MM55; MM55, replicate 1, read-out: IC50 1 um) was 5.64, the IC90 (M. mycetomatis MM55; MM55, replicate 1, read-out: IC90 1 um) was 4720 nM and the pIC50 (M. mycetomatis MM55; MM55, replicate 2, read-out: IC50 2 um) was 6.15. For the same molecule, the IC90 (M. mycetomatis MM55; MM55, replicate 2, read-out: IC90 2 um) was 1500 nM, the pIC50 (M. mycetomatis MM55; MM55, replicate 3, read-out: IC50 3 um) was 6.01 and the IC90 (M. mycetomatis MM55; MM55, replicate 3, read-out: IC90 3 um) was over 25000 nM.

`CC(=O)N1CCN(c2ccc(OCC3COC(Cn4ccnc4)(c4ccc(Cl)cc4Cl)O3)cc2)CC1` (centres unmarked) [MMV637533, Ketoconazole, reference compound] showed an activity at 25 µM [2, 9] of -0.0796%, an activity at 25 µM [2, 10] of 1.08% and an activity at 25 µM [2, 11] of -3.63%. It also gave an activity at 25 µM [2, 12] of 2.31%, an activity at 100 µM [2, 13] of 5.46% and an activity at 100 µM [2, 14] of 1.43%. The activity at 100 µM [2, 15] was 7.48%, the activity at 100 µM [2, 16] was 7.47% and the “MIC50” value [5] was 0.13 µM (≈ 0.0691 µg/mL). For the same molecule, the “MIC range” value [5] was 0.06 to 1.9 µM, the “Drug static or cidal” value (M. mycetomatis MM55) was “Cidal” and the pIC50 (M. mycetomatis MM55; [8]) was 7.15. It also gave a pIC50 (M. mycetomatis MM55; [17]) of over 7.01, an IC90 (M. mycetomatis MM55; [18]) of 180 nM and a pIC50 (M. mycetomatis MM55; [19]) of over 7.01. It also gave an IC90 (M. mycetomatis MM55; [20]) of under 98 nM, a pIC50 (M. mycetomatis MM55; [21]) of 6.42 and an IC90 (M. mycetomatis MM55; [22]) of 1050 nM.

For `C[C@@H](c1nc(-c2ccc(C#N)cc2)cs1)[C@](O)(Cn1cncn1)c1ccc(F)cc1F` [MMV1634362, Ravuconazole], the “Inhibits growth of Medicopsis romeroi at 25 μM” value [1] was “neither F. senegalensis nor Me. romeroi growth were inhibited”, the activity at 25 µM [2, 9] was -1.1% and the activity at 25 µM [2, 10] was -3.16%. It also gave an activity at 25 µM [2, 11] of -3.36%, an activity at 25 µM [2, 12] of 3.22% and an activity at 100 µM [2, 13] of 4.1%. For the same molecule, the activity at 100 µM [2, 14] was -3.18%, the activity at 100 µM [2, 15] was 5.51% and the activity at 100 µM [2, 16] was 9.97%. The “Larvae survival rate on day ten” value ([3]; 20 μM per larvae at 4, 28, 52 h after infection, day ten) was 26.7%, the “Effect on larvae survival Day 4 (words)” value [3] was “prolonged larvae survival” and the “Effect on larvae survival Day 10 (words)” value ([3]; day ten) was “able to prolong larvae survival”. For the same molecule, the “In vivo efficacy, Enhanced survival compared to control?” value ([3]; in vivo) was “yes *”, the “In vivo efficacy, Larvae survival %” value ([3]; in vivo) was 26.7% and the “Inhibits growth of Falciformispora senegalensis at 25 μM” value [6] was “neither F. senegalensis nor Me. romeroi growth were inhibited”. For the same molecule, the “MIC50” value [5] was 0.01 µM (≈ 0.00437 µg/mL), the “MIC range” value [5] was 0.004 to 0.06 µM and the “Drug static or cidal” value (M. mycetomatis MM55) was “Cidal”. The pIC50 (M. mycetomatis MM55; [8]) was 8.00, the pIC50 (M. mycetomatis MM55; MM55, mean, read-out: IC50 mean) was over 7.01 and the pIC50 (M. mycetomatis MM55; [17]) was over 7.01. The IC90 (M. mycetomatis MM55; [18]) was under 98 nM, the pIC50 (M. mycetomatis MM55; [19]) was 5.98 and the IC90 (M. mycetomatis MM55; [20]) was 4000 nM. The pIC50 (M. mycetomatis MM55; [21]) was over 7.01 and the IC90 (M. mycetomatis MM55; [22]) was 2750 nM.
